Source: paper PMC5447021, “TNF Lectin-Like Domain Restores Epithelial Sodium Channel Function in Frameshift Mutants Associated with Pseudohypoaldosteronism Type 1B” (Frontiers in Immunology, 2017)
“Also recorded” adds a separate entry of the source.

Assays:
[1] = test system: αS452fs (co-expressed with βγ-ENaC); assay: Whole-cell patch clamp, αS452fs + WT βγ; format: cell-based, human; settings: read-out: EC50, solnatide, HEK-293, whole-cell, -100 mV, n = 5, p < 0.01 vs WT
Description: (§1) Point mutations of α-, β-, γ- and δ-hENaC and PHA1B frameshift mutations of α-hENaC were prepared with the QuikChange Lightning Site-Directed Mutagenesis Kit (Agilent Technologies, CA, USA). Mutagenic primers were designed individually with the Primer Design Program provided on the producer’s website or for the frameshift mutations the same base changes as reported in patients (see Table 2) were performed. Primers were ordered from Sigma-Aldrich, Vienna, Austria.
(§2) HEK-293 cells were transfected 1 day after cell seeding using X-tremeGENE HP DNA transfection reagent (Roche Diagnostics, Mannheim, Germany) according to the manufacturer’s protocol. A set of WT or mutant αβγ- or δβγ-hENaC, or α-, β-, γ-, or δ-hENaC alone was used, and the ratio of DNA to transfection reagent was 1:3. The expression was highest 48–72 h after transfection.
Electrophysiological experiments were performed as described in detail by Shabbir et al. ([16]). […] Currents were recorded with the patch clamp method in the whole-cell mode. The chamber contained 1 ml of the bath solution of the following composition (in mM): 145 NaCl, 2.7 KCl, 1.8 CaCl2, 2 MgCl2, 5.5 glucose, and 10 HEPES, adjusted to pH 7.4 with 1 M NaOH solution. Micropipettes were pulled from thin-walled borosilicate glass capillaries (Harvard Apparatus, Holliston, MA, USA) with a DMZ Zeitz Puller to obtain electrode resistances ranging from 2 to 5 MΩ. […]

[2] = test system: α-ENaC frameshift PHA1B mutants; assay: Whole-cell patch clamp, all α-ENaC PHA1B frameshift mutants + WT βγ; format: cell-based, human; settings: for Restoration of current by solnatide (words): all 10 frameshift mutants, 200 nM solnatide (Figure 4B), n = 3–11
Description: as §1, §2
Electrophysiological experiments were performed as described in detail by Shabbir et al. ([16]). […] Currents were recorded with the patch clamp method in the whole-cell mode. The chamber contained 1 ml of the bath solution of the following composition (in mM): 145 NaCl, 2.7 KCl, 1.8 CaCl2, 2 MgCl2, 5.5 glucose, and 10 HEPES, adjusted to pH 7.4 with 1 M NaOH solution. Micropipettes were pulled from thin-walled borosilicate glass capillaries (Harvard Apparatus, Holliston, MA, USA) with a DMZ Zeitz Puller to obtain electrode resistances ranging from 2 to 5 MΩ. The pipette solution contained (in millimolars): 135 potassium methane sulfonate, 10 KCl, 6 NaCl, 1 Mg2ATP, 2 Na3ATP, 10 HEPES, and 0.5 EGTA, adjusted to pH 7.2 with 1 M KOH solution. Chemicals for pipette and bathing solutions were supplied by Sigma-Aldrich (Vienna, Austria). Electrophysiological measurements were carried out with an Axopatch 200B patch clamp amplifier (Axon Instruments, CA, USA). Capacity transients were canceled, and series resistance was compensated. Whole-cell currents were filtered at 5 kHz and sampled at 10 kHz. Data acquisition and storage were processed directly to a PC equipped with pCLAMP 10.2 software (Axon Instruments, CA, USA). […]

αE272fs = assay: Membrane abundance of αE272fs; format: cell-based, human; settings: 200 nM, relative to WT control (=1), own control 0.35 ± 0.06, p < 0.001 vs control
Description: (§3) Cell surface biotinylation was performed as previously described ([26]). In brief, A549 cells or transiently transfected HEK-293 cells were grown in 10 cm dishes in 37°C, 5% CO2 incubator in DMEM medium supplemented with 5% FBS. […] Medium was aspirated, and then cells were washed twice with 10 ml ice-cold phosphate-buffered saline (PBS), covered with 2.5 mg EZ-Link Sulfo-NHS-SS-Biotin (Thermo Scientific, Rockford, USA), dissolved in 10 ml ice-cold PBS, and incubated at 4°C with gentle agitation for 30 min. Fifty milliliters of quenching solution were added to cells; then cells were scraped in solution and transferred to fresh 50 ml tube. Cell suspension was centrifuged at 500 × g for 3 min. Supernatant was discarded, and 5 ml of Tris-buffered saline (TBS) was added to the cell pellet. The cell pellet was resuspended and centrifuged at 500 × g for 3 min. Supernatant was discarded and cell pellet was resuspended in lysis buffer containing protease inhibitor cocktail (10 µM pepstatin A, 10 µM phenylmethylsulfonyl fluoride, and 10 µM leupeptin) and transferred to fresh 1.5 ml centrifuge tube. Cell pellet was then homogenized on ice by ultrasonication using 1 s bursts and incubated on ice for at least 30 min. Intact cells and nuclei were pelleted by centrifugation at 10,000 × g for 2 min under cooling conditions. […] Exposed films were scanned and quantified using ImageJ (NIH, MD, USA). […]

αT169fs = assay: Membrane abundance of αT169fs; format: cell-based, human; settings: 200 nM, relative to WT control (=1)
Description: as §3

A549 cells = settings: cited from earlier work

SMILES: C[C@@H]1NC(=O)CNC(=O)[C@H](CCC(=O)O)NC(=O)[C@@H]2CCCN2C(=O)[C@H]([C@@H](C)O)NC(=O)[C@H](CCC(=O)O)NC(=O)[C@H](CCCNC(=N)N)NC(=O)[C@H](CCC(N)=O)NC(=O)CNC(=O)[C@@H](N)CSSC[C@@H](C(=O)O)NC(=O)[C@H](Cc2ccc(O)cc2)NC(=O)[C@H](Cc2c[nH]c3ccccc23)NC(=O)[C@@H]2CCCN2C(=O)[C@H](CCCCN)NC(=O)[C@H](C)NC(=O)[C@H](CCC(=O)O)NC1=O [solnatide, L-cysteine, L-cysteinylglycyl-L-glutaminyl-L-arginyl-L-α-glutamyl-L-threonyl-L-prolyl-L-α-glutamylglycyl-L-alanyl-L-α-glutamyl-L-alanyl-L-lysyl-L-prolyl-L-tryptophyl-L-tyrosyl-, cyclic (1→17)-disulfide]
- EC50 [1]: 68.5 ± 4.1 nM
- Restoration of current by solnatide (words) [2]: up to or even higher than WT control current in absence of solnatide; also recorded: restored the amiloride-sensitive current in all these frameshift mutants to WT or higher levels
- Restoration of current by solnatide (words) ([2]; listed as Solnatide): restored function in α-ENaC frameshift mutants to current density levels of wild type ENaC or higher
- Concentration at which maximum current activation was reached ([2]; solnatide, frameshift mutants, HEK-293): 200 nM
- Membrane abundance, solnatide 5 min (αE272fs; 5 min): 0.72 ± 0.03
- Membrane abundance, solnatide 10 min (αE272fs; 10 min): 0.64 ± 0.05
- Membrane abundance, solnatide 5 min (αT169fs; 5 min, own control 0.54 ± 0.06, p < 0.001 vs control): 0.80 ± 0.03
- Membrane abundance, solnatide 10 min (αT169fs; 10 min, own control 0.54 ± 0.06): 0.46 ± 0.09
- Increase in single channel parameters after PNGase F (A549 cells; A549 cells, PNGase F pretreated): completely abolished in PNGase F pretreated cells
- Single channel open probability, mean open time, number and duration of bursts (A549 cells; A549 cells): significantly increased
- Effect on current, A549 cells (A549 cells; endogenous α-, β-, γ-, δ-subunits): current activating effect
